Experimental data as given in patent US20100022483A1, “Substituted Tetracycline Compounds” (Paratek Pharmaceuticals, Inc., priority 2008, published 2010).
≈ marks a conversion by molar mass, not a printed value. Read-outs that look alike come from different tables or passages of the source.

Assays:
gram positive bacteria = assay: In vitro anti-bacterial activity assay (broth dilution MIC), gram positive bacteria; format: cell-based, S. aureus; conditions: 18 h
Text: (§1) Bacterial infections may be caused by a wide variety of gram positive and gram negative bacteria. Some of the compounds of the invention are useful as antibiotics against organisms which are resistant and/or sensitive to other tetracycline compounds. The antibiotic activity of the tetracycline compounds of the invention may by using the in vitro standard broth dilution method described in Waitz, J. A., CLSI, Document M7-A2, vol. 10, no. 8, pp. 13-20, 2nd edition, Villanova, Pa. (1990).
(§2) The following assay was used to determine the efficacy of the tetracycline compounds against gram positive and gram negative bacteria. 2 mg of each compound was dissolved in 100 μl of DMSO. […] The tetracycline compound solutions were diluted to 50 μL volumes, with a test compound concentration of 0.098 μg/ml. Optical density (OD) determinations were made from fresh log-phase broth cultures of the test strains. Dilutions were made to achieve a final cell density of […] CFU/ml. At OD=1, cell densities for different genera were approximately:
(§3) 50 μl of the cell suspensions were added to each well of microtiter plates. The final cell density was approximately 5×10^5 CFU/ml. These plates were incubated at 35° C. in an ambient air incubator for approximately 18 hours. The plates were read with a microplate reader and were visually inspected when necessary. The MIC was defined as the lowest concentration of the tetracycline compound that inhibits growth. Table 3 includes MIC data for several substituted tetracycline compounds.

gram negative bacteria = assay: In vitro anti-bacterial activity assay (broth dilution MIC), gram negative bacteria; format: cell-based, E. coli
Text: as §1, §2, §3

[1] = Mammalian cytotoxicity assay (resazurin), COS-1 cells; format: cell-based; conditions: African green monkey, read-out: Cytotox. COS-1
Procedure: (§4) COS-1 and CHO-K1 cell suspensions were prepared, seeded into 96-well tissue culture treated black-walled microtiter plates (density determined by cell line), and incubated overnight at 37° C., in 5% CO2 and approximately 95% humidity. The following day, serial dilutions of compound were prepared under sterile conditions and transferred to cell plates. Cell/Compound plates were incubated under the above conditions for 24 hours. Following the incubation period, media/compound was aspirated and 50 μl of resazurin (0.042 mg/ml in PBS w/Ca and Mg) is added. The plates were then incubated under the above conditions for 2 hours and then placed in the dark at room temperature for an additional 30 minutes. Fluorescence measurements were taken (excitation 535 nm, emission 590 nm). The IC50 (concentration of compound causing 50% growth inhibition) was then calculated. Table 3 includes IC50 data for several substituted tetracycline compounds.

in vitro = format: cell-based; conditions: Chinese hamster, Cytotox. CHO-K1
Procedure: as §4

3T3 fibroblast cells = assay: In vitro phototoxicity assay (neutral red; UV light-treated vs dark control plates); format: cell-based; conditions: for Photo Toxicity UV Tox50: UV light 50 minutes; for Photo Toxicity Dark Tox50: dark control plate
Procedure: 3T3 fibroblast cells were harvested and plated at a concentration of 1×10^5 cells/mL and the plates were incubated overnight at 37° C., in 5% CO2 and approximately 95% humidity. On the following day the medium was removed from the plates and replaced with Hanks' Balanced Salt Solution (HBSS). Compound dilutions were made in HBSS and added to the plates. For each compound tested, a duplicate plate was prepared that was not exposed to light as a control for compound toxicity. Plates were then incubated in a dark drawer (for controls), or under UV light (meter reading of 1.6-1.8 mW/cm^2) for 50 minutes. Cells were then washed with HBSS, fresh medium was added, and plates were incubated overnight as described above. The following day neutral red was added as an indicator of cell viability. The plates were then incubated for an additional 3 hours. Cells were then washed with HBSS and blotted on absorbent paper to remove excess liquid. A solution of 50% EtOH, 10% glacial acetic acid was added and after 20 minutes incubation the plate's absorbance at 535 nm was read using a Wallac Victor 5 spectrophotometer. The phototoxicity reflected the difference between the light-treated and control cultures. Table 3 includes phototoxicity (μM) data for several substituted tetracycline compounds.

[2] = Staphylococcus aureus, S. aureus MRSA5, read-out: Median MIC's G+ S. aureus MRSA5
[3] = Staphylococcus aureus, S. aureus RN450, read-out: Median MIC's G+ S. aureus RN450
[4] = Streptococcus pneumoniae, S. pneumoniae 157E-Strep, read-out: Median MIC's G+ S. pneumoniae 157E-Strep
[5] = Escherichia coli, 18 h, E. coli D1 209, read-out: Median MIC's G− E. coli D1 209
[6] = Escherichia coli, 18 h, E. coli MG 1655, read-out: Median MIC's G− E. coli MG 1655
[7] = Escherichia coli, ATCC25922, 18 h, E. coli ATCC 25922, read-out: Median MIC's G− E. coli ATCC 25922
[8] = Pseudomonas aeruginosa, 18 h, P. aeruginosa K201 PAO6609, read-out: Median MIC's G− P. aeruginosa K201 PAO6609

Compound	MIC (gram positive bacteria; [2]) [µg/mL]	MIC (gram positive bacteria; [3]) [µg/mL]	MIC (gram positive bacteria; [4]) [µg/mL]	MIC (gram negative bacteria; [5]) [µg/mL]	MIC (gram negative bacteria; [6]) [µg/mL]	MIC (gram negative bacteria; [7]) [µg/mL]	MIC (gram negative bacteria; [8]) [µg/mL]	IC50 at 24 h [1] [µM]	IC50 at 24 h (in vitro) [µM]	Photo Toxicity UV Tox50 (3T3 fibroblast cells) [µM]	Photo Toxicity Dark Tox50 (3T3 fibroblast cells) [µM]
CN(C)[C@H]1C(O)=C(C(N)=O)C(=O)[C@@]2(O)C(O)=C3C(=O)c4c(O)ccc(-c5cnc6ccccc6c5)c4C[C@H]3C[C@@H]12 [H]	2 (≈ 3.69 µM)	0.5 (≈ 0.923 µM)	0.25 (≈ 0.462 µM)	64 (≈ 118 µM)	64 (≈ 118 µM)	64 (≈ 118 µM)	64 (≈ 118 µM)	> 15.9	> 15.9	>159.48	>159.48
CN(C)[C@@H]1C(O)=C(C(N)=O)C(=O)[C@@]2(O)C(O)=C3C(=O)c4c(O)ccc(-c5cccc(C(=O)NCc6ccco6)c5)c4C[C@H]3C[C@@H]12 [Y]	1 (≈ 1.63 µM)	0.06 (≈ 0.0978 µM)	0.06 (≈ 0.0978 µM)	64 (≈ 104 µM)	64 (≈ 104 µM)	64 (≈ 104 µM)	64 (≈ 104 µM)	> 14.6	> 14.6	>146.13	>146.13
CN(Cc1cccnc1)Cc1cccc(-c2ccc(O)c3c2C[C@H]2C[C@H]4[C@H](N(C)C)C(O)=C(C(N)=O)C(=O)[C@@]4(O)C(O)=C2C3=O)c1 [BJ]	2 (≈ 3.2 µM)	0.25 (≈ 0.4 µM)	0.06 (≈ 0.096 µM)	32 (≈ 51.2 µM)	64 (≈ 102 µM)	16 (≈ 25.6 µM)	64 (≈ 102 µM)	> 12.3	> 25.1	>122.6	>122.6
COCCCNC(=O)c1cccc(-c2ccc(O)c3c2CC2CC4[C@H](N(C)C)C(O)=C(C(N)=O)C(=O)[C@@]4(O)C(O)=C2C3=O)c1 (stereo partly shown) [DD]	2 (≈ 3.3 µM)	0.0625 (≈ 0.103 µM)	0.06 (≈ 0.0991 µM)	64 (≈ 106 µM)	64 (≈ 106 µM)	64 (≈ 106 µM)	64 (≈ 106 µM)	> 15.3	> 15.3	>152.62	>152.62
CN(C)CCCNC(=O)c1ccc(-c2ccc(O)c3c2C[C@H]2C[C@H]4[C@H](N(C)C)C(O)=C(C(N)=O)C(=O)[C@@]4(O)C(O)=C2C3=O)o1 [DH]	64 (≈ 105 µM)	4 (≈ 6.57 µM)	2 (≈ 3.29 µM)	64 (≈ 105 µM)	64 (≈ 105 µM)	64 (≈ 105 µM)	64 (≈ 105 µM)	> 200	> 200	>200	>200
CN(C)CC(=O)Nc1ccc(-c2ccc(O)c3c2C[C@H]2C[C@H]4[C@H](N(C)C)C(O)=C(C(N)=O)C(=O)[C@@]4(O)C(O)=C2C3=O)cc1 [BC]	2 (≈ 3.39 µM)	0.06 (≈ 0.102 µM)	0.06 (≈ 0.102 µM)	1 (≈ 1.69 µM)	2 (≈ 3.39 µM)	1 (≈ 1.69 µM)	64 (≈ 108 µM)	> 13.6	> 13.6	>135.63	>135.63
CN(C)[C@H]1C(O)=C(C(N)=O)C(=O)[C@@]2(O)C(O)=C3C(=O)c4c(O)ccc(-c5cccc(C(N)=O)c5)c4C[C@H]3C[C@@H]12 (stereo in doubt) [B]	64 (≈ 120 µM)	2 (≈ 3.75 µM)	2 (≈ 3.75 µM)	64 (≈ 120 µM)	64 (≈ 120 µM)	64 (≈ 120 µM)	64 (≈ 120 µM)	> 15.7	> 15.7	>156.64	>156.64
CN(C)CCCN(C)Cc1cccc(-c2ccc(O)c3c2C[C@H]2C[C@H]4[C@H](N(C)C)C(O)=C(C(N)=O)C(=O)[C@@]4(O)C(O)=C2C3=O)c1 [CU]	16 (≈ 25.9 µM)	0.5 (≈ 0.808 µM)	0.125 (≈ 0.202 µM)	32 (≈ 51.7 µM)	8 (≈ 12.9 µM)	8 (≈ 12.9 µM)	32 (≈ 51.7 µM)	> 124	> 124	>123.6	>123.6
CN1CCN(C(=O)c2cccc(-c3ccc(O)c4c3C[C@H]3C[C@H]5[C@H](N(C)C)C(O)=C(C(N)=O)C(=O)[C@@]5(O)C(O)=C3C4=O)c2)CC1 [C]	64 (≈ 104 µM)	0.25 (≈ 0.405 µM)	0.06 (≈ 0.0973 µM)	64 (≈ 104 µM)	32 (≈ 51.9 µM)	8 (≈ 13 µM)	64 (≈ 104 µM)	> 138	> 138	>137.76	>137.76
C=CCNCC(=O)c1ccc(O)c2c1C[C@H]1C[C@H]3[C@H](N(C)C)C(O)=C(C(N)=O)C(=O)[C@@]3(O)C(O)=C1C2=O [BV]	32 (≈ 62.6 µM)	4 (≈ 7.82 µM)	1 (≈ 1.95 µM)	64 (≈ 125 µM)	16 (≈ 31.3 µM)	32 (≈ 62.6 µM)	64 (≈ 125 µM)	> 122	27.6	>121.69	>121.69
CN(C)CC(=O)N1CC=C(c2ccc(O)c3c2C[C@H]2C[C@H]4[C@H](N(C)C)C(O)=C(C(N)=O)C(=O)[C@@]4(O)C(O)=C2C3=O)CC1 [AL]	32 (≈ 55.1 µM)	0.5 (≈ 0.861 µM)	0.5 (≈ 0.861 µM)	64 (≈ 110 µM)	16 (≈ 27.6 µM)	16 (≈ 27.6 µM)	64 (≈ 110 µM)	> 145	> 145	>145.35	>145.35
